Assay results: ChEMBL document CHEMBL1201862, “PubChem BioAssay data set” (2004)
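Assay format: 96-well plates, 48-hour exposure. GI50: concentration for 50% inhibition of growth.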 Calls of active or inactive are those of the source. Cut-off read from the data, not from the text of the source: active = GI50 up to about 1.1 µM and inactive = higher.

Key:
Assay in all cases: NCI anticancer screen, dose series, 48 h
COLO 205 = test system: COLO 205
HOP-92 = test system: HOP-92
SK-MEL-28 = test system: SK-MEL-28
Malme-3M = test system: Malme-3M
MDA-MB-435 = test system: MDA-MB-435
OVCAR-8 = test system: OVCAR-8
A549 = test system: A549
K562 = test system: K562
PC-3 = test system: PC-3
T47D = test system: T47D
SW-620 = test system: SW-620
CAKI-1 = test system: CAKI-1
MOLT-4 = test system: MOLT-4
IGROV-1 = test system: IGROV-1
A498 = test system: A498
OVCAR-4 = test system: OVCAR-4
HL-60 = test system: HL-60
SF-295 = test system: SF-295
SN12C = test system: SN12C
UACC-62 = test system: UACC-62
NCI-H226 = test system: NCI-H226
TK-10 = test system: TK-10
SR = test system: SR
U-251 = test system: U-251
786-0 = test system: 786-0
NCI-H23 = test system: NCI-H23
LOX IMVI = test system: LOX IMVI
HT-29 = test system: HT-29
MDA-MB-231 = test system: MDA-MB-231
UO-31 = test system: UO-31
M14 = test system: M14
NCI-H460 = test system: NCI-H460
CCRF-CEM = test system: CCRF-CEM
SK-OV-3 = test system: SK-OV-3
NCI-H522 = test system: NCI-H522
HCT-116 = test system: HCT-116
HCC 2998 = test system: HCC 2998
MCF7 = test system: MCF7
ACHN = test system: ACHN
NCI/ADR-RES = test system: NCI/ADR-RES
DU-145 = test system: DU-145
SF-539 = test system: SF-539
SNB-19 = test system: SNB-19
BT-549 = test system: BT-549
OVCAR-5 = test system: OVCAR-5
UACC-257 = test system: UACC-257
SK-MEL-5 = test system: SK-MEL-5
EKVX = test system: EKVX
MDA-N = test system: MDA-N
HCT-15 = test system: HCT-15
SK-MEL-2 = test system: SK-MEL-2
RXF 393 = test system: RXF 393
HOP-62 = test system: HOP-62
RPMI-8226 = test system: RPMI-8226
SNB-75 = test system: SNB-75
OVCAR-3 = test system: OVCAR-3
SF-268 = test system: SF-268
KM12 = test system: KM12

With `NC(=O)CC1OC(=O)Cc2cc3c(c(O)c21)C(=O)c1c(O)cccc1C3=O` (stereo not drawn) the GI50 (COLO 205) was 61.2 µM (inactive), the GI50 (HOP-92) was > 100 µM (inactive) and the GI50 (SK-MEL-28) was > 100 µM (inactive). For the same molecule, the GI50 (Malme-3M) was > 100 µM (inactive), the GI50 (MDA-MB-435) was > 100 µM (inactive) and the GI50 (OVCAR-8) was > 100 µM (inactive). For the same molecule, the GI50 (A549) was > 100 µM (inactive), the GI50 (K562) was 39.5 µM (inactive) and the GI50 (PC-3) was > 100 µM (inactive). For the same molecule, the GI50 (T47D) was > 100 µM (inactive), the GI50 (SW-620) was > 100 µM (inactive) and the GI50 (CAKI-1) was > 100 µM (inactive). The GI50 (MOLT-4) was 71.3 µM (inactive), the GI50 (IGROV-1) was 69.3 µM (inactive) and the GI50 (A498) was 43.9 µM (inactive). The GI50 (OVCAR-4) was > 100 µM (inactive), the GI50 (HL-60) was > 100 µM (inactive) and the GI50 (SF-295) was > 100 µM (inactive). The GI50 (SN12C) was > 100 µM (inactive), the GI50 (UACC-62) was > 100 µM (inactive) and the GI50 (NCI-H226) was > 100 µM (inactive). For the same molecule, the GI50 (TK-10) was > 100 µM (inactive), the GI50 (SR) was 43.7 µM (inactive) and the GI50 (U-251) was > 100 µM (inactive). The GI50 (786-0) was > 100 µM (inactive), the GI50 (NCI-H23) was > 100 µM (inactive) and the GI50 (LOX IMVI) was > 100 µM (inactive). For the same molecule, the GI50 (HT-29) was > 100 µM (inactive), the GI50 (MDA-MB-231) was > 100 µM (inactive) and the GI50 (UO-31) was 32.9 µM (inactive). For the same molecule, the GI50 (M14) was > 100 µM (inactive), the GI50 (NCI-H460) was 89.5 µM (inactive) and the GI50 (CCRF-CEM) was 59.8 µM (inactive). For the same molecule, the GI50 (SK-OV-3) was > 100 µM (inactive), the GI50 (NCI-H522) was > 100 µM (inactive) and the GI50 (HCT-116) was > 100 µM (inactive). The GI50 (HCC 2998) was > 100 µM (inactive), the GI50 (MCF7) was > 100 µM (inactive) and the GI50 (ACHN) was 41.5 µM (inactive). For the same molecule, the GI50 (NCI/ADR-RES) was > 100 µM (inactive), the GI50 (DU-145) was > 100 µM (inactive) and the GI50 (SF-539) was 92.7 µM (inactive). For the same molecule, the GI50 (SNB-19) was > 100 µM (inactive), the GI50 (BT-549) was > 100 µM (inactive) and the GI50 (OVCAR-5) was > 100 µM (inactive). For the same molecule, the GI50 (UACC-257) was > 100 µM (inactive), the GI50 (SK-MEL-5) was 67.5 µM (inactive) and the GI50 (EKVX) was > 100 µM (inactive). The GI50 (MDA-N) was > 100 µM (inactive), the GI50 (HCT-15) was 71.4 µM and the GI50 (SK-MEL-2) was > 100 µM (inactive).
`CCO[C@@]1(COCc2ccccc2)OC(=O)C[C@@H]1N1C(=O)OC[C@@H]1c1ccccc1` was tested, and the GI50 (COLO 205) was > 100 µM (inactive), the GI50 (HOP-92) was > 100 µM (inactive) and the GI50 (SK-MEL-28) was > 100 µM (inactive). The GI50 (Malme-3M) was > 100 µM (inactive), the GI50 (MDA-MB-435) was > 100 µM (inactive) and the GI50 (OVCAR-8) was > 100 µM (inactive). For the same molecule, the GI50 (A549) was > 100 µM (inactive), the GI50 (K562) was > 100 µM (inactive) and the GI50 (PC-3) was > 100 µM (inactive). For the same molecule, the GI50 (T47D) was > 100 µM (inactive), the GI50 (SW-620) was > 100 µM (inactive) and the GI50 (RXF 393) was > 100 µM (inactive). The GI50 (CAKI-1) was 25.8 µM (inactive), the GI50 (HOP-62) was 26.6 µM (inactive) and the GI50 (RPMI-8226) was > 100 µM (inactive). For the same molecule, the GI50 (MOLT-4) was 58.9 µM (inactive), the GI50 (IGROV-1) was > 100 µM (inactive) and the GI50 (A498) was > 100 µM (inactive). For the same molecule, the GI50 (OVCAR-4) was > 100 µM (inactive), the GI50 (HL-60) was 42.8 µM (inactive) and the GI50 (SF-295) was > 100 µM (inactive). The GI50 (SN12C) was > 100 µM (inactive), the GI50 (UACC-62) was > 100 µM (inactive) and the GI50 (NCI-H226) was > 100 µM (inactive). For the same molecule, the GI50 (TK-10) was > 100 µM (inactive), the GI50 (U-251) was > 100 µM (inactive) and the GI50 (786-0) was > 100 µM (inactive). The GI50 (NCI-H23) was > 100 µM (inactive), the GI50 (LOX IMVI) was > 100 µM (inactive) and the GI50 (SNB-75) was > 100 µM (inactive). The GI50 (HT-29) was > 100 µM (inactive), the GI50 (MDA-MB-231) was > 100 µM (inactive) and the GI50 (OVCAR-3) was 41.5 µM (inactive). For the same molecule, the GI50 (UO-31) was > 100 µM (inactive), the GI50 (M14) was > 100 µM (inactive) and the GI50 (NCI-H460) was > 100 µM (inactive). For the same molecule, the GI50 (CCRF-CEM) was > 100 µM (inactive), the GI50 (SK-OV-3) was > 100 µM (inactive) and the GI50 (NCI-H522) was 84.3 µM (inactive). For the same molecule, the GI50 (HCT-116) was > 100 µM (inactive), the GI50 (HCC 2998) was > 100 µM (inactive) and the GI50 (MCF7) was > 100 µM (inactive). The GI50 (ACHN) was > 100 µM (inactive), the GI50 (NCI/ADR-RES) was > 100 µM (inactive) and the GI50 (DU-145) was > 100 µM (inactive). For the same molecule, the GI50 (SF-539) was > 100 µM (inactive), the GI50 (SNB-19) was > 100 µM (inactive) and the GI50 (BT-549) was > 100 µM (inactive). For the same molecule, the GI50 (SF-268) was > 100 µM (inactive), the GI50 (OVCAR-5) was > 100 µM (inactive) and the GI50 (UACC-257) was > 100 µM (inactive). The GI50 (SK-MEL-5) was > 100 µM (inactive), the GI50 (EKVX) was > 100 µM (inactive) and the GI50 (MDA-N) was > 100 µM (inactive). The GI50 (HCT-15) was > 100 µM, the GI50 (SK-MEL-2) was > 100 µM (inactive) and the GI50 (KM12) was 32.5 µM (inactive).
